Laboratory results reported in the supplement of paper PMC11061612.

Legend:
Assay in all cases: Bliss excess, mean over the matrix (fraction); higher = more synergy
42-MG-BA (Glioblastoma) = tested on: 42-MG-BA (Glioblastoma)
Method in brief: (§1)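 After 24 hours at 37°C and 5% CO2 in 1536-well plates, cells in DMEM/F12 or RPMI plus 10% FBS received two-drug dose matrices for 72 hours. Viability came from CellTiter-Glo 2.0 luminescence and was scaled as inhibition, anchored at 0 by vehicle wells and at 1 by blank wells. Combination Emax is taken as the second-highest inhibition in the matrix, and Bliss excess as the observed combination effect less EA + EB − EA·EB, with EA and EB the single-agent effects.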

AGS (Gastric Carcinoma) = tested on: AGS (Gastric Carcinoma)
Method in brief: as §1

[1] = tested on: COLO-205 (Colorectal Carcinoma)
Method in brief: as §1

[2] = tested on: DEL (T-Cell Non-Hodgkin's Lymphoma)
Method in brief: as §1

[3] = tested on: DoTc2-4510 (Cervical Carcinoma)
Method in brief: as §1

[4] = tested on: EC-GI-10 (Esophageal Squamous Cell Carcinoma)
Method in brief: as §1

ES4 (Ewing's Sarcoma) = tested on: ES4 (Ewing's Sarcoma)
Method in brief: as §1

[5] = tested on: HCC-78 (Lung Adenocarcinoma)
Method in brief: as §1

[6] = tested on: HO-1-N-1 (Oral Cavity Carcinoma)
Method in brief: as §1

[7] = tested on: LU-135 (Small Cell Lung Carcinoma)
Method in brief: as §1

[8] = tested on: ME-1 (Acute Myeloid Leukemia)
Method in brief: as §1

[9] = tested on: NCI-H82 (Small Cell Lung Carcinoma)
Method in brief: as §1

[10] = tested on: Ramos-2G6-4C10 (Burkitt's Lymphoma)
Method in brief: as §1

[11] = tested on: SK-ES-1 (Ewing's Sarcoma)
Method in brief: as §1

[12] = tested on: SNU-5 (Gastric Carcinoma)
Method in brief: as §1

T98G (Glioblastoma) = tested on: T98G (Glioblastoma)
Method in brief: as §1

[13] = tested on: TCCSUP (Bladder Carcinoma)
Method in brief: as §1

[14] = tested on: TE-15 (Esophageal Squamous Cell Carcinoma)
Method in brief: as §1

[15] = tested on: TE-9 (Esophageal Squamous Cell Carcinoma)
Method in brief: as §1

[16] = tested on: UM-UC-3 (Bladder Carcinoma)
Method in brief: as §1

`COc1nnc2ccc(N3CCC(c4ccc(OCCN5CCN(C)C(=O)[C@H]5C)cc4)CC3)nn12` [AZD5153] + CCN(CCO)CCCOc1ccc2c(Nc3cc(CC(=O)Nc4cccc(F)c4)[nH]n3)ncnc2c1 [AZD2811] (first compound max 1 µM, 7x7, partner max 1 µM) was tested, and the Bliss excess (42-MG-BA (Glioblastoma)) was -0.0476, the Bliss excess (AGS (Gastric Carcinoma)) was 0.0294 and the Bliss excess [1] was -0.0595. The Bliss excess [2] was -0.0462, the Bliss excess [3] was -0.0067 and the Bliss excess [4] was -0.0142. For the same compound, the Bliss excess (ES4 (Ewing's Sarcoma)) was 0.0055, the Bliss excess [5] was -0.0314 and the Bliss excess [6] was -0.0014. The Bliss excess [7] was -0.0449, the Bliss excess [8] was -0.0534 and the Bliss excess [9] was -0.064. The Bliss excess [10] was -0.0004, the Bliss excess [11] was -0.0695 and the Bliss excess [12] was -0.0501. The Bliss excess (T98G (Glioblastoma)) was -0.014, the Bliss excess [13] was -0.0398 and the Bliss excess [14] was -0.0535. The Bliss excess [15] was -0.0096 and the Bliss excess [16] was 0.0346.

Compound `CCN(CCO)CCCOc1ccc2c(Nc3cc(CC(=O)Nc4cccc(F)c4)[nH]n3)ncnc2c1` [AZD2811] + C[C@@H]1COCCN1C2=NC(=NC(=C2)C3(CC3)[S@](=N)(=O)C)C4=C5C=CNC5=NC=C4 [AZD6738] (first compound max 1 µM, 7x7, partner max 10 µM) has a Bliss excess (42-MG-BA (Glioblastoma)) of 0.037, a Bliss excess (AGS (Gastric Carcinoma)) of -0.0191 and a Bliss excess [1] of -0.0872. It also gave a Bliss excess [2] of 0.0156, a Bliss excess [3] of -0.0481 and a Bliss excess [4] of 0.0182. It also gave a Bliss excess (ES4 (Ewing's Sarcoma)) of -0.0042, a Bliss excess [5] of 0.0099 and a Bliss excess [6] of -0.053. The Bliss excess [7] was -0.0552, the Bliss excess [8] was -0.0813 and the Bliss excess [9] was -0.0406. It also gave a Bliss excess [10] of -0.0008, a Bliss excess [11] of 0.0382 and a Bliss excess [12] of -0.0209. The Bliss excess (T98G (Glioblastoma)) was -0.0645, the Bliss excess [13] was 0.0006 and the Bliss excess [14] was -0.0063. The Bliss excess [15] was -0.009 and the Bliss excess [16] was 0.0276.

With `COc1nnc2ccc(N3CCC(c4ccc(OCCN5CCN(C)C(=O)[C@H]5C)cc4)CC3)nn12` [AZD5153] + CC1(C)CCC(CN2CCN(c3ccc(C(=O)NS(=O)(=O)c4ccc(NCC5CCOCC5)c([N+](=O)[O-])c4)c(Oc4cnc5[nH]ccc5c4)c3)CC2)=C(c2ccc(Cl)cc2)C1 [Venetoclax] (first compound max 1 µM, 7x7, partner max 1 µM) the Bliss excess (42-MG-BA (Glioblastoma)) was -0.0391, the Bliss excess (AGS (Gastric Carcinoma)) was -0.0619 and the Bliss excess [1] was -0.0745. It also gave a Bliss excess [2] of -0.0559, a Bliss excess [3] of -0.0405 and a Bliss excess [4] of -0.118. For the same compound, the Bliss excess (ES4 (Ewing's Sarcoma)) was -0.111, the Bliss excess [5] was -0.0448 and the Bliss excess [6] was -0.095. The Bliss excess [7] was -0.001, the Bliss excess [8] was 0.0529 and the Bliss excess [9] was -0.103. The Bliss excess [10] was -0.0041, the Bliss excess [11] was -0.0092 and the Bliss excess [12] was -0.0754. The Bliss excess (T98G (Glioblastoma)) was -0.0115, the Bliss excess [13] was -0.0768 and the Bliss excess [14] was -0.0698. For the same compound, the Bliss excess [15] was -0.0599 and the Bliss excess [16] was -0.043.

For `CCN(CCO)CCCOc1ccc2c(Nc3cc(CC(=O)Nc4cccc(F)c4)[nH]n3)ncnc2c1` [AZD2811] + C=CCn1c(=O)c2cnc(Nc3ccc(N4CCN(C)CC4)cc3)nc2n1-c1cccc(C(C)(C)O)n1 [AZD1775] (first compound max 1 µM, partner max 1 µM), the Bliss excess (42-MG-BA (Glioblastoma)) was 0.081, the Bliss excess (AGS (Gastric Carcinoma)) was 0.0156 and the Bliss excess [1] was 0.008. The Bliss excess [2] was 0.0636, the Bliss excess [3] was -0.0323 and the Bliss excess [4] was 0.0411. The Bliss excess (ES4 (Ewing's Sarcoma)) was -0.0024, the Bliss excess [5] was 0.0092 and the Bliss excess [6] was -0.0785. The Bliss excess [7] was -0.0346, the Bliss excess [8] was -0.0812 and the Bliss excess [9] was 0.0241. It also gave a Bliss excess [10] of 0.0096, a Bliss excess [11] of 0.028 and a Bliss excess [12] of -0.0294. It also gave a Bliss excess (T98G (Glioblastoma)) of -0.0167, a Bliss excess [13] of -0.0204 and a Bliss excess [14] of -0.0576. The Bliss excess [15] was -0.0285 and the Bliss excess [16] was -0.0171.

`CC1(C)CCC(CN2CCN(c3ccc(C(=O)NS(=O)(=O)c4ccc(NCC5CCOCC5)c([N+](=O)[O-])c4)c(Oc4cnc5[nH]ccc5c4)c3)CC2)=C(c2ccc(Cl)cc2)C1` [Venetoclax] + C[C@@H](Nc1cc(F)cc(F)c1)c1cc(C(=O)N(C)C)cc2c(=O)cc(N3CCOCC3)oc12 [AZD8186] (first compound max 1 µM, 7x7, partner max 3 µM) gave a Bliss excess (42-MG-BA (Glioblastoma)) of -0.0591, a Bliss excess (AGS (Gastric Carcinoma)) of -0.0458 and a Bliss excess [1] of 0.0279. The Bliss excess [2] was 0.0055, the Bliss excess [3] was -0.0078 and the Bliss excess [4] was -0.0139. The Bliss excess (ES4 (Ewing's Sarcoma)) was -0.0554, the Bliss excess [5] was -0.0337 and the Bliss excess [6] was -0.009. The Bliss excess [7] was 0.121, the Bliss excess [8] was 0.0239 and the Bliss excess [9] was -0.0452. For the same compound, the Bliss excess [10] was 0.0107, the Bliss excess [11] was 0.0802 and the Bliss excess [12] was 0.0236. The Bliss excess (T98G (Glioblastoma)) was -0.0064, the Bliss excess [13] was -0.0442 and the Bliss excess [14] was -0.0307. The Bliss excess [15] was -0.0185 and the Bliss excess [16] was -0.0164.

`COc1nnc2ccc(N3CCC(c4ccc(OCCN5CCN(C)C(=O)[C@H]5C)cc4)CC3)nn12` [AZD5153] + C=CCn1c(=O)c2cnc(Nc3ccc(N4CCN(C)CC4)cc3)nc2n1-c1cccc(C(C)(C)O)n1 [AZD1775] (first compound max 1 µM, partner max 1 µM) gave a Bliss excess (42-MG-BA (Glioblastoma)) of -0.0577, a Bliss excess (AGS (Gastric Carcinoma)) of -0.0294 and a Bliss excess [1] of -0.0529. It also gave a Bliss excess [2] of -0.0679, a Bliss excess [3] of -0.018 and a Bliss excess [4] of -0.0813. For the same compound, the Bliss excess (ES4 (Ewing's Sarcoma)) was -0.0223, the Bliss excess [5] was -0.055 and the Bliss excess [6] was -0.0551. For the same compound, the Bliss excess [7] was -0.004, the Bliss excess [8] was -0.0446 and the Bliss excess [9] was -0.0656. The Bliss excess [10] was -0.0657, the Bliss excess [11] was -0.0279 and the Bliss excess [12] was -0.0759. It also gave a Bliss excess (T98G (Glioblastoma)) of -0.0092, a Bliss excess [13] of -0.0497 and a Bliss excess [14] of -0.001. It also gave a Bliss excess [15] of -0.0028 and a Bliss excess [16] of -0.0413.
